Measurements: the NIST ThermoML archive (doi:10.1016/j.jct.2013.02.022)

What was measured:
[1] = xn = mol fraction of the nth substance listed; conditions: 101 kPa, Liquid, Vibrating tube method
[2] = refractive index (Na D-line) (dimensionless); xn = mol fraction of the nth substance listed; conditions: 101 kPa, Liquid, Standard Abbe refractometry

CCCC(=O)[O-].C[NH2+]CCO [N-methyl-2-hydroxyethylammonium butanoate] + CCOC(C)=O
Conditions | mass density, [1] [kg/m3] | refractive index, [2]
303.15 K, x2 = 0 | 1035.87 | 1.4534
303.15 K, x2 = 0.0454 | – | 1.4533
303.15 K, x2 = 0.0956 | – | 1.4511
303.15 K, x2 = 0.199 | 1013.58 | 1.4472
303.15 K, x2 = 0.2901 | 1004.61 | 1.4411
303.15 K, x2 = 0.412 | – | 1.4324
303.15 K, x2 = 0.507 | 981.19 | 1.4246
303.15 K, x2 = 0.6018 | – | 1.4161
303.15 K, x2 = 0.7039 | 950.35 | 1.4055
303.15 K, x2 = 0.8031 | 931.53 | 1.3949
303.15 K, x2 = 0.8998 | 911.57 | 1.3812
303.15 K, x2 = 0.9497 | – | 1.3746
303.16 K, x2 = 0.0454 | 1026.24 | –
303.16 K, x2 = 0.0956 | 1022.32 | –
303.16 K, x2 = 0.412 | 992.58 | –
303.16 K, x2 = 0.6018 | 967.06 | –
303.16 K, x2 = 0.9497 | 900.62 | –
308.15 K, x2 = 0 | 1032.53 | –
308.15 K, x2 = 0.0956 | 1018.71 | –
308.15 K, x2 = 0.199 | 1009.85 | –
308.15 K, x2 = 0.2901 | 1000.57 | –
308.15 K, x2 = 0.412 | 987.98 | –
308.15 K, x2 = 0.507 | 976.57 | –
308.15 K, x2 = 0.6018 | 962.31 | –
308.15 K, x2 = 0.7039 | 945.26 | –
308.15 K, x2 = 0.8031 | 926.08 | –
308.15 K, x2 = 0.8998 | 905.73 | –
308.16 K, x2 = 0.0454 | 1022.67 | –
308.16 K, x2 = 0.9497 | 894.58 | –
313.15 K, x2 = 0.0454 | 1019.09 | –
313.15 K, x2 = 0.0956 | 1015.1 | –
313.15 K, x2 = 0.6018 | 957.53 | –
313.16 K, x2 = 0 | 1029.14 | –
313.16 K, x2 = 0.199 | 1006.08 | –
313.16 K, x2 = 0.2901 | 996.56 | –
313.16 K, x2 = 0.412 | 983.25 | –
313.16 K, x2 = 0.507 | 971.82 | –
313.16 K, x2 = 0.7039 | 940.11 | –
313.16 K, x2 = 0.8031 | 920.58 | –
313.16 K, x2 = 0.8998 | 899.84 | –
313.16 K, x2 = 0.9497 | 888.5 | –
318.15 K, x2 = 0.9497 | 882.16 | –
318.16 K, x2 = 0 | 1025.72 | –
318.16 K, x2 = 0.0454 | 1015.66 | –
318.16 K, x2 = 0.0956 | 1011.66 | –
318.16 K, x2 = 0.199 | 1002.32 | –
318.16 K, x2 = 0.2901 | 992.61 | –
318.16 K, x2 = 0.412 | 978.49 | –
318.16 K, x2 = 0.507 | 967.05 | –
318.16 K, x2 = 0.6018 | 952.68 | –
318.16 K, x2 = 0.7039 | 934.92 | –
318.16 K, x2 = 0.8031 | 915.03 | –
318.16 K, x2 = 0.8998 | 893.91 | –
323.14 K, x2 = 0.0454 | 1012.2 | –
323.14 K, x2 = 0.0956 | 1007.98 | –
323.14 K, x2 = 0.199 | 998.56 | –
323.14 K, x2 = 0.2901 | 988.83 | –
323.14 K, x2 = 0.412 | 974.67 | –
323.14 K, x2 = 0.507 | 962.75 | –
323.14 K, x2 = 0.7039 | 929.55 | –
323.14 K, x2 = 0.8031 | 909.33 | –
323.14 K, x2 = 0.8998 | 887.92 | –
323.15 K, x2 = 0.6018 | 947.5 | –
323.15 K, x2 = 0.9497 | 876.1 | –
323.16 K, x2 = 0 | 1022.26 | –

CCCC(=O)[O-].C[NH2+]CCO [N-methyl-2-hydroxyethylammonium butanoate] + COC(C)=O
Conditions | mass density, [1] [kg/m3] | refractive index, [2]
288.14 K, x2 = 0.7912 | 977.2 | –
288.15 K, x2 = 0 | 1046 | 1.4579
288.15 K, x2 = 0.0646 | 1040 | 1.4558
288.15 K, x2 = 0.1097 | 1036.1 | 1.4556
288.15 K, x2 = 0.2074 | 1027.3 | 1.4509
288.15 K, x2 = 0.3079 | 1021.07 | 1.4449
288.15 K, x2 = 0.3983 | 1015.6 | 1.4399
288.15 K, x2 = 0.4973 | 1011.5 | 1.4327
288.15 K, x2 = 0.5928 | 1003 | 1.4232
288.15 K, x2 = 0.6898 | 991.4 | 1.413
288.15 K, x2 = 0.7912 | – | 1.3996
288.15 K, x2 = 0.8979 | – | 1.3833
288.15 K, x2 = 0.898 | 959.7 | –
288.15 K, x2 = 0.9483 | – | 1.3746
288.16 K, x2 = 0.9483 | 950.1 | –
293.14 K, x2 = 0.0646 | 1036.4 | –
293.14 K, x2 = 0.1097 | 1032.5 | –
293.14 K, x2 = 0.9483 | 943.8 | –
293.15 K, x2 = 0 | 1042.6 | –
293.15 K, x2 = 0.2074 | 1024 | –
293.15 K, x2 = 0.3079 | 1017.3 | –
293.15 K, x2 = 0.3983 | 1011.4 | –
293.15 K, x2 = 0.4973 | 1007.2 | –
293.15 K, x2 = 0.5928 | 998.4 | –
293.15 K, x2 = 0.6898 | 986.5 | –
293.15 K, x2 = 0.7912 | 971.7 | –
293.15 K, x2 = 0.898 | 953.8 | –
298.14 K, x2 = 0.0646 | 1032.8 | –
298.14 K, x2 = 0.3983 | 1007.1 | –
298.14 K, x2 = 0.6898 | 981.5 | –
298.14 K, x2 = 0.7912 | 966.2 | –
298.14 K, x2 = 0.898 | 947.7 | –
298.14 K, x2 = 0.9483 | 937.5 | –
298.15 K, x2 = 0 | 1039.2 | –
298.15 K, x2 = 0.1097 | 1028.9 | –
298.15 K, x2 = 0.2074 | 1019.6 | –
298.15 K, x2 = 0.3079 | 1013.2 | –
298.15 K, x2 = 0.4973 | 1002.9 | –
298.15 K, x2 = 0.5928 | 993.7 | –
303.14 K, x2 = 0.0646 | 1029.1 | –
303.14 K, x2 = 0.2074 | 1015.8 | –
303.14 K, x2 = 0.3983 | 1002.8 | –
303.14 K, x2 = 0.4973 | 998.4 | –
303.14 K, x2 = 0.5928 | 989.1 | –
303.14 K, x2 = 0.6898 | 976.4 | –
303.14 K, x2 = 0.7912 | 960.7 | –
303.14 K, x2 = 0.898 | 941.6 | –
303.14 K, x2 = 0.9483 | 931.1 | –
303.15 K, x2 = 0 | 1035.9 | –
303.15 K, x2 = 0.1097 | 1025.2 | –
303.15 K, x2 = 0.3079 | 1009 | –
308.14 K, x2 = 0.0646 | 1025.6 | –
308.14 K, x2 = 0.2074 | 1013.3 | –
308.14 K, x2 = 0.3079 | 1004.8 | –
308.14 K, x2 = 0.3983 | 998.5 | –
308.14 K, x2 = 0.4973 | 992.6 | –
308.14 K, x2 = 0.6898 | 971.3 | –
308.14 K, x2 = 0.7912 | 955.1 | –
308.14 K, x2 = 0.898 | 935.5 | –
308.14 K, x2 = 0.9483 | 924.6 | –
308.15 K, x2 = 0 | 1032.5 | –
308.15 K, x2 = 0.1097 | 1021.6 | –
308.15 K, x2 = 0.5928 | 984.3 | –
313.14 K, x2 = 0.0646 | 1022 | –
313.14 K, x2 = 0.1097 | 1018 | –
313.14 K, x2 = 0.2074 | 1009.2 | –
313.14 K, x2 = 0.3079 | 1000.6 | –
313.14 K, x2 = 0.3983 | 994.2 | –
313.14 K, x2 = 0.4973 | 988.8 | –
313.14 K, x2 = 0.6898 | 966.1 | –
313.14 K, x2 = 0.7912 | 949.5 | –
313.14 K, x2 = 0.898 | 929.3 | –
313.14 K, x2 = 0.9483 | 918.1 | –
313.15 K, x2 = 0.5928 | 979.6 | –
313.16 K, x2 = 0 | 1029.1 | –
318.14 K, x2 = 0.1097 | 1014.3 | –
318.14 K, x2 = 0.3079 | 996.3 | –
318.14 K, x2 = 0.5928 | 974.8 | –
318.14 K, x2 = 0.898 | 923 | –
318.14 K, x2 = 0.9483 | 911.5 | –
318.15 K, x2 = 0.0646 | 1018.3 | –
318.15 K, x2 = 0.2074 | 1006.1 | –
318.15 K, x2 = 0.3983 | 989.8 | –
318.15 K, x2 = 0.4973 | 983.8 | –
318.15 K, x2 = 0.6898 | 961 | –
318.15 K, x2 = 0.7912 | 943.8 | –
318.16 K, x2 = 0 | 1025.7 | –
323.14 K, x2 = 0.1097 | 1010.6 | –
323.14 K, x2 = 0.5928 | 970 | –
323.15 K, x2 = 0.0646 | 1014.6 | –
323.15 K, x2 = 0.2074 | 1001.4 | –
323.15 K, x2 = 0.3079 | 992.33 | –
323.15 K, x2 = 0.3983 | 985.3 | –
323.15 K, x2 = 0.4973 | 979.2 | –
323.15 K, x2 = 0.6898 | 955.7 | –
323.15 K, x2 = 0.7912 | 938.1 | –
323.15 K, x2 = 0.898 | 916.7 | –
323.15 K, x2 = 0.9483 | 904.9 | –
323.16 K, x2 = 0 | 1022.3 | –
